# Data from patent US10251854B2, “S-(carboxymethyl)-cysteine pharmaceutical compound and preparation method and use thereof” (Guangzhou Baiyunshan Pharmaceutical Holdings Co., Ltd. …, priority 2013, dated 2019).
# Columns and labels:
# Assay type in all cases: in vivo
# Details in all cases: x ± SD
# rat COPD model [1] = assay: Rat COPD model: inflammation indexes (TNF-α, IL-8, IL-6)
# Method: (§1) 1.1 Preparation of Rat COPD Models
# (§2) A method of establishing a rat COPD model by fumigation plus endotoxin lipopolysaccharide (LPS) endotracheal drop, which is commonly used at home and abroad at present was adopted. The period is 3 months (90 days). Specific method: on the 1st, the 15th, the 29th, the 43rd, the 57th, the 71st and the 85th days of the test, the rats were anesthetized with ethylether, the roots of tongues of the rats were pulled out, and LPS (200 ug/200 ul) was dripped through tracheas by bend gavage needle heads. The rats of the normal group were dripped with physiological saline of equal amount by the same method, and weren't fumigated. The rats of the other five groups were fumigated in a self-made fumigation bin. One side of the fumigation bin was externally connected with a negative pressure pump, and the top thereof was connected with a port for inserting cigarettes. With the negative press pump turned on, the cigarettes were lit, and the smoke of the cigarettes was absorbed into the fumigation bin. In order to prevent the animals from death caused by anoxia, 12 cigarettes were lit every time, and the lid of the fumigation bin was opened 20 min after fumigation for letting in fresh air. The operation was performed 1 h/3 times/day, with the LPS (200 ug/200 ul) being dripped through the tracheas by bend gavage needle heads.
# (§3) 1.2 Pharmacological Intervention
# (§4) The test was 90 days long. The pharmacological intervention was started from the 15th day, the rats of the positive group were perfused with carbocisteine, the rats of the low, medium and high test groups were perfused with different doses of test medicines, and the rats of the model group and the normal group were perfused with physiological saline of equal amount.
# (§5) 1.3 Indexes Determination
# (§6) Blood was taken from the orbit of each rat on the second day after the test was over, serum was separated, a complete stomach was cut and washed, lung tissue was preserved, the stomach and the right upper lung were left for pathobiology test, after the rest of the lung was subjected to lung tissue homogenate, the indexes of oxidization and antioxidation, the contents of lipid peroxide (LPO), malondialdehyde (MDA) and reduced glutathione (GSH), the activity of superoxide dismutase (SOD) and the concentration of inflammatory medium TNF-α, IL-8 and IL-6 were detected.
# rat COPD model [2] = assay: Rat COPD model: oxidization indexes (LPO, MDA)
# Method: as §1, §2, §3, §4, §5, §6
# rat COPD model [3] = assay: Rat COPD model: antioxidation indexes (GSH, SOD)
# Method: as §1, §2, §3, §4, §5, §6
compound,measurement,setting,value
"N.N.N[C@H](CSCC(=O)O)C(=O)O.O [D-ammonium, S-(carboxymethyl)-D-cysteine ammonium salt monohydrate]",IL-6 Lung tissue,rat COPD model [1]; high dose group,13.83 ± 6.19 pg/mL
same,IL-6 Serum,rat COPD model [1]; high dose group,7.93 ± 3.10 pg/mL
same,IL-8 Lung tissue,rat COPD model [1]; high dose group,11.44 ± 1.64 pg/mL
same,IL-8 Serum,rat COPD model [1]; high dose group,7.38 ± 1.54 pg/mL
same,TNF-α Lung tissue,rat COPD model [1]; high dose group,21.33 ± 8.57 pg/mL
same,TNF-α Serum,rat COPD model [1]; high dose group,17.19 ± 4.05 pg/mL
same,IL-6 Lung tissue,rat COPD model [1]; low dose group,16.36 ± 4.78 pg/mL
same,IL-6 Serum,rat COPD model [1]; low dose group,10.76 ± 2.90 pg/mL
same,IL-8 Lung tissue,rat COPD model [1]; low dose group,13.09 ± 2.98 pg/mL
same,IL-8 Serum,rat COPD model [1]; low dose group,8.56 ± 2.79 pg/mL
same,TNF-α Lung tissue,rat COPD model [1]; low dose group,28.26 ± 12.06 pg/mL
same,TNF-α Serum,rat COPD model [1]; low dose group,21.12 ± 4.11 pg/mL
same,IL-6 Lung tissue,rat COPD model [1]; medium dose group,15.61 ± 4.40 pg/mL
same,IL-6 Serum,rat COPD model [1]; medium dose group,9.09 ± 3.23 pg/mL
same,IL-8 Lung tissue,rat COPD model [1]; medium dose group,11.90 ± 1.77 pg/mL
same,IL-8 Serum,rat COPD model [1]; medium dose group,8.05 ± 1.72 pg/mL
same,TNF-α Lung tissue,rat COPD model [1]; medium dose group,25.02 ± 10.89 pg/mL
same,TNF-α Serum,rat COPD model [1]; medium dose group,19.86 ± 3.58 pg/mL
same,LPO Lung tissue,rat COPD model [2]; high dose group,17.33 ± 4.07 nmol/mL
same,LPO Serum,rat COPD model [2]; high dose group,4.97 ± 1.74 nmol/mL
same,MDA Lung tissue,rat COPD model [2]; high dose group,4.35 ± 0.63 µmol/mL
same,MDA Serum,rat COPD model [2]; high dose group,7.05 ± 1.59 µmol/mL
same,LPO Lung tissue,rat COPD model [2]; low dose group,20.35 ± 3.70 nmol/mL
same,LPO Serum,rat COPD model [2]; low dose group,6.07 ± 1.55 nmol/mL
same,MDA Lung tissue,rat COPD model [2]; low dose group,5.12 ± 1.11 µmol/mL
same,MDA Serum,rat COPD model [2]; low dose group,8.28 ± 2.09 µmol/mL
same,LPO Lung tissue,rat COPD model [2]; medium dose group,18.38 ± 2.86 nmol/mL
same,LPO Serum,rat COPD model [2]; medium dose group,5.20 ± 0.96 nmol/mL
same,MDA Lung tissue,rat COPD model [2]; medium dose group,4.90 ± 0.43 µmol/mL
same,MDA Serum,rat COPD model [2]; medium dose group,7.75 ± 1.93 µmol/mL
same,GSH Lung tissue,rat COPD model [3]; high dose group,120.13 ± 25.76 µmol/L
same,GSH Serum,rat COPD model [3]; high dose group,158.76 ± 29.50 µmol/L
same,SOD Lung tissue,rat COPD model [3]; high dose group,70.51 ± 20.90 U/mL
same,SOD Serum,rat COPD model [3]; high dose group,98.28 ± 19.15 U/mL
same,GSH Lung tissue,rat COPD model [3]; low dose group,94.54 ± 17.50 µmol/L
same,GSH Serum,rat COPD model [3]; low dose group,120.16 ± 17.05 µmol/L
same,SOD Lung tissue,rat COPD model [3]; low dose group,52.17 ± 16.44 U/mL
same,SOD Serum,rat COPD model [3]; low dose group,72.30 ± 12.66 U/mL
same,GSH Lung tissue,rat COPD model [3]; medium dose group,109.68 ± 24.63 µmol/L
same,GSH Serum,rat COPD model [3]; medium dose group,131.33 ± 24.17 µmol/L
same,SOD Lung tissue,rat COPD model [3]; medium dose group,60.31 ± 14.12 U/mL
same,SOD Serum,rat COPD model [3]; medium dose group,88.85 ± 17.47 U/mL
S-(carboxymethyl)-D-cysteine arginine salt monohydrate [D-arginine],IL-6 Lung tissue,rat COPD model [1]; high dose group,13.69 ± 4.33 pg/mL
same,IL-6 Serum,rat COPD model [1]; high dose group,8.70 ± 2.35 pg/mL
same,IL-8 Lung tissue,rat COPD model [1]; high dose group,10.82 ± 2.59 pg/mL
same,IL-8 Serum,rat COPD model [1]; high dose group,7.74 ± 1.28 pg/mL
same,TNF-α Lung tissue,rat COPD model [1]; high dose group,24.40 ± 6.09 pg/mL
same,TNF-α Serum,rat COPD model [1]; high dose group,19.73 ± 6.08 g* pg/mL
same,IL-6 Lung tissue,rat COPD model [1]; low dose group,17.03 ± 7.27 pg/mL
same,IL-6 Serum,rat COPD model [1]; low dose group,11.07 ± 2.60 pg/mL
same,IL-8 Lung tissue,rat COPD model [1]; low dose group,12.69 ± 2.33 pg/mL
same,IL-8 Serum,rat COPD model [1]; low dose group,9.70 ± 1.35 pg/mL
same,TNF-α Lung tissue,rat COPD model [1]; low dose group,30.10 ± 9.44 pg/mL
same,TNF-α Serum,rat COPD model [1]; low dose group,23.12 ± 4.20 pg/mL
same,IL-6 Lung tissue,rat COPD model [1]; medium dose group,15.44 ± 5.64 pg/mL
same,IL-6 Serum,rat COPD model [1]; medium dose group,10.38 ± 3.54 pg/mL
same,IL-8 Lung tissue,rat COPD model [1]; medium dose group,12.01 ± 2.11 pg/mL
same,IL-8 Serum,rat COPD model [1]; medium dose group,8.26 ± 2.67 pg/mL
same,TNF-α Lung tissue,rat COPD model [1]; medium dose group,28.28 ± 13.57 pg/mL
same,TNF-α Serum,rat COPD model [1]; medium dose group,20.09 ± 5.10 pg/mL
same,LPO Lung tissue,rat COPD model [2]; high dose group,18.74 ± 3.47 nmol/mL
same,LPO Serum,rat COPD model [2]; high dose group,5.26 ± 0.88 nmol/mL
same,MDA Lung tissue,rat COPD model [2]; high dose group,4.58 ± 0.66 µmol/mL
same,LPO Lung tissue,rat COPD model [2]; low dose group,21.98 ± 2.16 nmol/mL
same,LPO Serum,rat COPD model [2]; low dose group,6.32 ± 1.34 nmol/mL
same,MDA Lung tissue,rat COPD model [2]; low dose group,5.21 ± 0.72 µmol/mL
same,MDA Serum,rat COPD model [2]; low dose group,8.66 ± 2.20 µmol/mL
same,LPO Lung tissue,rat COPD model [2]; medium dose group,20.62 ± 3.65 nmol/mL
same,LPO Serum,rat COPD model [2]; medium dose group,5.80 ± 1.07 nmol/mL
same,MDA Lung tissue,rat COPD model [2]; medium dose group,5.01 ± 0.41 µmol/mL
same,GSH Lung tissue,rat COPD model [3]; high dose group,114.54 ± 20.57 µmol/L
same,GSH Serum,rat COPD model [3]; high dose group,144.17 ± 27.40 µmol/L
same,SOD Lung tissue,rat COPD model [3]; high dose group,62.24 ± 16.47 U/mL
same,SOD Serum,rat COPD model [3]; high dose group,92.32 ± 20.65 U/mL
same,GSH Lung tissue,rat COPD model [3]; low dose group,92.23 ± 13.38 µmol/L
same,SOD Lung tissue,rat COPD model [3]; low dose group,46.86 ± 19.25 U/mL
same,SOD Serum,rat COPD model [3]; low dose group,74.53 ± 8.70 U/mL
same,GSH Lung tissue,rat COPD model [3]; medium dose group,107.77 ± 18.26 µmol/L
same,SOD Lung tissue,rat COPD model [3]; medium dose group,54.4 ± 12.18 U/mL
same,SOD Serum,rat COPD model [3]; medium dose group,83.74 ± 15.27 U/mL
S-(carboxymethyl)-L-cysteine arginine salt monohydrate [L-arginine],IL-6 Lung tissue,rat COPD model [1]; high dose group,12.77 ± 4.65 pg/mL
same,IL-6 Serum,rat COPD model [1]; high dose group,6.69 ± 1.92 pg/mL
same,IL-8 Lung tissue,rat COPD model [1]; high dose group,9.09 ± 1.89 pg/mL
same,IL-8 Serum,rat COPD model [1]; high dose group,6.24 ± 1.89 pg/mL
same,TNF-α Lung tissue,rat COPD model [1]; high dose group,20.36 ± 7.41 pg/mL
same,TNF-α Serum,rat COPD model [1]; high dose group,15.7 ± 5.16 pg/mL
same,IL-6 Lung tissue,rat COPD model [1]; low dose group,15.80 ± 6.02 pg/mL
same,IL-6 Serum,rat COPD model [1]; low dose group,9.17 ± 3.08 pg/mL
same,IL-8 Lung tissue,rat COPD model [1]; low dose group,11.88 ± 303 pg/mL
same,IL-8 Serum,rat COPD model [1]; low dose group,8.56 ± 2.33 pg/mL
same,TNF-α Lung tissue,rat COPD model [1]; low dose group,26.17 ± 8.33 pg/mL
same,TNF-α Serum,rat COPD model [1]; low dose group,20.22 ± 4.77 pg/mL
same,IL-6 Lung tissue,rat COPD model [1]; medium dose group,14.22 ± 5.13 pg/mL
same,IL-6 Serum,rat COPD model [1]; medium dose group,7.66 ± 2.83 pg/mL
same,IL-8 Lung tissue,rat COPD model [1]; medium dose group,9.98 ± 2.43 pg/mL
same,IL-8 Serum,rat COPD model [1]; medium dose group,7.39 ± 2.02 pg/mL
same,TNF-α Lung tissue,rat COPD model [1]; medium dose group,23.65 ± 11.21 pg/mL
same,TNF-α Serum,rat COPD model [1]; medium dose group,18.6 ± 3.89 pg/mL
same,LPO Lung tissue,rat COPD model [2]; high dose group,16.09 ± 3.22 nmol/mL
same,LPO Serum,rat COPD model [2]; high dose group,4.25 ± 0.99 nmol/mL
same,MDA Lung tissue,rat COPD model [2]; high dose group,3.96 ± 0.57 µmol/mL
same,MDA Serum,rat COPD model [2]; high dose group,6.79 ± 1.83 µmol/mL
same,LPO Lung tissue,rat COPD model [2]; low dose group,19.66 ± 3.90 nmol/mL
same,LPO Serum,rat COPD model [2]; low dose group,5.78 ± 1.65 nmol/mL
same,MDA Lung tissue,rat COPD model [2]; low dose group,4.77 ± 0.72 µmol/mL
same,MDA Serum,rat COPD model [2]; low dose group,8.02 ± 1.54 µmol/mL
same,LPO Lung tissue,rat COPD model [2]; medium dose group,17.78 ± 2.98 nmol/mL
same,LPO Serum,rat COPD model [2]; medium dose group,4.87 ± 1.90 nmol/mL
same,MDA Lung tissue,rat COPD model [2]; medium dose group,4.40 ± 0.60 µmol/mL
same,MDA Serum,rat COPD model [2]; medium dose group,7.34 ± 2.44 µmol/mL
same,GSH Lung tissue,rat COPD model [3]; high dose group,128.45 ± 24.09 µmol/L
same,SOD Lung tissue,rat COPD model [3]; high dose group,72.36 ± 14.55 U/mL
same,SOD Serum,rat COPD model [3]; high dose group,116.34 ± 27.86 U/mL
same,GSH Lung tissue,rat COPD model [3]; low dose group,102.45 ± 18.97 µmol/L
same,GSH Serum,rat COPD model [3]; low dose group,134.21 ± 26.45 µmol/L
same,SOD Lung tissue,rat COPD model [3]; low dose group,55.67 ± 13.29 U/mL
same,SOD Serum,rat COPD model [3]; low dose group,82.67 ± 19.45 U/mL
same,GSH Lung tissue,rat COPD model [3]; medium dose group,116.22 ± 22.73 µmol/L
same,GSH Serum,rat COPD model [3]; medium dose group,159.33 ± 30.20 µmol/L
same,SOD Lung tissue,rat COPD model [3]; medium dose group,65.44 ± 17.33 U/mL
same,SOD Serum,rat COPD model [3]; medium dose group,93.20 ± 20.77 U/mL
